Here are results for two compounds from ChEMBL document CHEMBL1141831, “Alertenone, a dimer of suberosenone from Alertigorgia sp” (J Nat Prod, 1999).

≈ marks a conversion by molar mass, not a printed value. Bounds are passed on as bounds.

As usually defined, the IC50 is the concentration that gives 50% inhibition. Higher therefore signals weaker potency.

The nature of assay [1]: Cytotoxicity against human LOX cells after 2 days by XTT assay. In kind it is functional, cell-based. The conditions noted are these: 48 h.
Another assay has as its system SF-295. Nature of the assay: Cytotoxicity against human SF-295 cells after 2 days by XTT assay. The settings on record: SF-295, 48 h. The assay is classed as functional, cell-based. On the technique in general: Tetrazolium assays rely on reduction of a dye to a coloured formazan, in cell work by metabolically active cells.
For another assay, the system named is A549. The assay can be described thus: Cytotoxicity against human A549 cells after 2 days by XTT assay. In kind it is functional, cell-based. The settings on record: A549, 48 h.
The next assay deals with M14. The assay can be described thus: Cytotoxicity against human M14 cells after 2 days by XTT assay. In kind it is functional, cell-based. The conditions noted are these: M14, 48 h.
A further assay concerns NCI-H522. The assay can be described thus: Antitumor activity against human NCI-H522 cells xenografted in mouse assessed as cell growth at 40 mg/kg by hollow-fiber assay relative to control. The assay is classed as functional. (In general: A xenograft is tissue or cells of one species grown in another, often human tumour cells in immunodeficient mice.)
The next assay deals with SF-539. Nature of the assay: Cytotoxicity against human SF-539 cells after 2 days by XTT assay. In kind it is functional, cell-based. The conditions noted are these: SF-539, 48 h.
A further assay has as its system Malme-3M. Nature of the assay: Cytotoxicity against human MALME-3M cells after 2 days by XTT assay. In kind it is functional, cell-based. The conditions noted are these: 48 h.
Another assay deals with HOP-92. The assay can be described thus: Cytotoxicity against human HOP-92 cells after 2 days by XTT assay. In kind it is functional, cell-based. The settings on record: HOP-92, 48 h.
In a further assay the test system is OVCAR-3. Nature of the assay: Cytotoxicity against human OVCAR-3 cells after 2 days by XTT assay. The assay is classed as functional, cell-based. The conditions noted are these: OVCAR-3, 48 h.
A further assay concerns U-251. Nature of the assay: Antitumor activity against human U251 cells xenografted in mouse assessed as cell growth at 40 mg/kg by hollow-fiber assay relative to control. The assay is classed as functional.
The test system of another assay is SNB-19. Nature of the assay: Cytotoxicity against human SNB-19 cells after 2 days by XTT assay. The assay is classed as functional, cell-based. The conditions noted are these: SNB-19, 48 h.
The subject of the next assay is MCF7. Nature of the assay: Cytotoxicity against human MCF7 cells after 2 days by XTT assay. In kind it is functional, cell-based. The settings on record: MCF7, 48 h.

For the compound `C=C1C(=O)C[C@H]2[C@@H]3CC[C@H](C)[C@]12CC3(C)C` [SUBEROSENONE], the IC50 was found to be 0.006 µg/mL (≈ 0.0275 µM) in assay [1]; 0.03 µg/mL (≈ 0.137 µM) in the assay on SF-295; 1.63 µg/mL (≈ 7.47 µM) in the assay with A549; 0.01 µg/mL (≈ 0.0458 µM) in the assay on M14; 0.002 µg/mL (≈ 0.00916 µM) with SF-539; 0.008 µg/mL (≈ 0.0366 µM) in the assay on Malme-3M. Further, the IC50 with HOP-92 was 0.11 µg/mL (≈ 0.504 µM); with OVCAR-3 it was 0.02 µg/mL (≈ 0.0916 µM); in the assay on SNB-19, 0.006 µg/mL (≈ 0.0275 µM); with MCF7, 0.43 µg/mL (≈ 1.97 µM). Further, the Activity in the assay on NCI-H522 and in the assay with U-251 was 10% in each case.

Consider `C=C1C(=O)[C@H](C[C@@H]2C(=O)C[C@H]3[C@@H]4CC[C@H](C)[C@]23CC4(C)C)[C@H]2[C@@H]3CC[C@H](C)[C@]12CC3(C)C` [ALERTENONE], for which the IC50 in [1] is more than 100 µg/mL; in the assay with SF-295, 35 µg/mL (≈ 80.2 µM); with A549, 40 µg/mL (≈ 91.6 µM); in the assay with M14, 40 µg/mL (≈ 91.6 µM); with SF-539, 35 µg/mL (≈ 80.2 µM); in the assay with Malme-3M it was 40 µg/mL (≈ 91.6 µM). In addition, the IC50 in the assay on HOP-92 is 45 µg/mL (≈ 103 µM); in the assay on OVCAR-3, 35 µg/mL (≈ 80.2 µM); in the assay on SNB-19, 45 µg/mL (≈ 103 µM); with MCF7, 40 µg/mL (≈ 91.6 µM).
